Test: Safety and tolerability: adverse events in the treatment-emergent period, part 1 of phase 2 trial in PD patients carrying a GBA mutation
Type: in vivo, human
Description: This clinical trial is a 3-year, phase 2, randomised, double-blinded, placebo-controlled, multicenter study of Compound 2 in participants with early-stage PD carrying a GBA mutation. The trial is divided into 2 consecutive parts: part 1 is a dose escalation study (described below) of safety, pharmacokinetics, and pharmacodynamics of 3 doses using 3 sequential cohorts; part 2 is an ongoing 2-arm study of efficacy and safety of Compound 2.
Participants were randomised to 3 doses of once-daily orally administered Compound 2 or placebo, in sequential cohort design, and were followed up to 36 weeks (52 weeks for Japanese participants). Participants in the low-dose group received 4 mg of Compound 2 as a once daily oral dose; participants in the mid-dose group received 8 mg of Compound 2 a once daily oral dose; and participants in the high-dose group received 15 mg of Compound 2 a once daily oral dose.
The primary outcome in part 1 of trial was an assessment of safety and tolerability of orally administered Compound 2 versus placebo through Week 4 (primary analysis period for each sequential cohort). In addition, safety assessments were recorded for every 4 weeks until completion. Safety was assessed by physical examination; neurological examination; clinical laboratory evaluations conducted at a central laboratory, including haematology, biochemistry, urinalysis, and serology tests; vital signs; assessment of AEs and concomitant medication; ophthalmological examination; and electrocardiogram. AEs, serious Aes, and AEs of special interest (AESI) were recorded throughout the study. Serious AEs were defined as fatal, or life threatening, requiring or prolonging inpatient hospitalisation, or disabling/incapacitating, congenital anomalies, or medically important events (e.g. malignancies or chronic neurodegenerative diseases). AESI included new or worsening lens opacities and cataracts (as assessed by ophthalmology evaluations at screening and at Weeks 4, 12, 28, 36 [Weeks 4, 12, 36, 52 for Japanese participants]), pregnancy events, increase of alanine aminotransferase, or symptomatic overdose with study drug.
During the study, 29 participants were randomised to Compound 2 (Japan, n=9; ROW, n=13) or placebo (n=3; n=4). Eight (89%) Japanese and 12 (92%) ROW Compound 2-treated participants experienced ≥1 adverse event (AE) versus 2 (67%) and 4 (100%) participants from the respective placebo groups. […] Two Compound 2-treated ROW participants discontinued due to AEs (confusional state and panic attack).

**Q.** Which “Number of participants with AEs: Infections and infestations” value (shortened to “Number of participants with AEs”) (Japan, High 15 mg once daily oral, n = 3) does the source give for `CC(C)(NC(=O)O[C@@H]1CN2CCC1CC2)c1csc(-c2ccc(F)cc2)n1` [Compound 2, (S)-quinuclidin-3-yl (2-(2-(4-fluorophenyl)thiazol-4-yl)propan-2-yl)carbamate] here?
**A.** 1

**Q.** And the “Number of participants with AEs” value (Japan, Low 4 mg once daily oral, n = 3)?
**A.** 2

**Q.** And the “Number of participants with AEs” value (Japan, Mid 8 mg once daily oral, n = 3)?
**A.** 0

**Q.** What about the “Number of participants with AEs” value (ROW, High 15 mg once daily oral, n = 4) of the same compound?
**A.** 1

**Q.** And the “Number of participants with AEs” value (ROW, Low 4 mg once daily oral, n = 4)?
**A.** 0

**Q.** What about the “Number of participants with AEs” value (ROW, Mid 8 mg once daily oral, n = 5) of the same compound?
**A.** 0

**Q.** And the “serious AEs or deaths” value (all participants, part 1)?
**A.** no serious AEs or deaths occurred

**Q.** And the “participants who discontinued due to AEs (confusional state and panic attack)” value (human, in vivo)?
**A.** Two

— patent US20230372313A1, “METHODS FOR REDUCING GLYCOSPHINGOLIPID CONCENTRATION IN BRAIN TISSUE AND METHODS OF TREATMENT OF NEURODEGENERATIVE DISEASES INVOLVING THE SAME” (GENZYME CORPORATION, priority 2020, published 2023)
